In ChEMBL document CHEMBL3885881, “DrugMatrix”:

Species on record: Rattus norvegicus
Experiment: DrugMatrix - Regimen: Daily Repeat
Assay type: toxicity, organism-based, Sprague-Dawley
Parameters: regimen Daily Repeat, gender Male, age 6-8 weeks
Conditions: in vivo, po, 200 mg/kg, route oral GAVAGE, dose level Low, […]; for ABSOLUTE BASOPHIL / ABSOLUTE EOSINOPHIL / ABSOLUTE LYMPHOCYTE / ABSOLUTE MONOCYTE / ABSOLUTE SEGMENTED NEUTROPHIL / BASOPHIL / EOSINOPHIL / ERYTHROCYTE COUNT / HEMATOCRIT / HEMOGLOBIN / LEUKOCYTE COUNT / LYMPHOCYTE / MEAN CORPUSCULAR HEMOGLOBIN / MEAN CORPUSCULAR HEMOGLOBIN CONCENTRATION / MEAN CORPUSCULAR VOLUME / MONOCYTE / NEUTROPHIL / NUCLEATED RED BLOOD CELLS / PLATELET COUNT: tissue Blood
[1] = 72 h, tissue Plasma, time 3 day
[2] = 120 h, tissue Plasma, time 5 day

## CCOc1ccc(NC(C)=O)cc1 [PHENACETIN]
72 h, time 3 day
  ABSOLUTE BASOPHIL: 0 CELLS/uL
  ABSOLUTE EOSINOPHIL: 0 CELLS/uL
  ABSOLUTE LYMPHOCYTE: 12319.33 CELLS/uL
  ABSOLUTE MONOCYTE: 297 CELLS/uL
  ABSOLUTE SEGMENTED NEUTROPHIL: 1617 CELLS/uL
  BASOPHIL: 0%
  EOSINOPHIL: 0%
  ERYTHROCYTE COUNT: 5.63 x10E6/uL
  HEMATOCRIT: 34.9%
  HEMOGLOBIN: 13.6 G/DL
  LEUKOCYTE COUNT: 14.23 x10E3/uL
  LYMPHOCYTE: 87%
  MEAN CORPUSCULAR HEMOGLOBIN: 24.17 pg
  MEAN CORPUSCULAR HEMOGLOBIN CONCENTRATION: 38.97 G/DL
  MEAN CORPUSCULAR VOLUME: 62.03 fL
  MONOCYTE: 2%
  NEUTROPHIL: 11%
  NUCLEATED RED BLOOD CELLS: 0 /100WBC
  PLATELET COUNT: 1192.67 x10E3/uL
[1]
  ALANINE AMINOTRANSFERASE: 73 u/L
  ALBUMIN: 4.07 G/DL
  ALKALINE PHOSPHATASE: 405 u/L
  ASPARTATE AMINOTRANSFERASE: 98.33 u/L
  BLOOD UREA NITROGEN: 12 mg/dL
  CARBON DIOXIDE: 24.67 mmol/L
  CHLORIDE: 101 MEQ/L
  CHOLESTEROL: 65.33 mg/dL
  CREATININE: 0.2 mg/dL
  GLUCOSE: 172 mg/dL
  LACTATE DEHYDROGENASE: 186.33 u/L
  LIPASE: 11.33 u/L
  PHOSPHORUS: 11.6 mg/dL
  POTASSIUM: 6.01 MEQ/L
  SODIUM: 142.63 MEQ/L
  TOTAL BILIRUBIN: 0.2 mg/dL
  TOTAL PROTEIN: 5.6 G/DL
  URIC ACID: 1.77 mg/dL
120 h, time 5 day
  ABSOLUTE BASOPHIL: 0 CELLS/uL
  ABSOLUTE EOSINOPHIL: 0 CELLS/uL
  ABSOLUTE LYMPHOCYTE: 14305.33 CELLS/uL
  ABSOLUTE MONOCYTE: 246 CELLS/uL
  ABSOLUTE SEGMENTED NEUTROPHIL: 1648.67 CELLS/uL
  BASOPHIL: 0%
  EOSINOPHIL: 0%
  ERYTHROCYTE COUNT: 5.8 x10E6/uL
  HEMATOCRIT: 35.23%
  HEMOGLOBIN: 14.07 G/DL
  LEUKOCYTE COUNT: 16.2 x10E3/uL
  LYMPHOCYTE: 88%
  MEAN CORPUSCULAR HEMOGLOBIN: 24.27 pg
  MEAN CORPUSCULAR HEMOGLOBIN CONCENTRATION: 39.93 G/DL
  MEAN CORPUSCULAR VOLUME: 60.8 fL
  MONOCYTE: 1.67%
  NEUTROPHIL: 10.33%
  NUCLEATED RED BLOOD CELLS: 0 /100WBC
  PLATELET COUNT: 1381.67 x10E3/uL
[2]
  ALANINE AMINOTRANSFERASE: 72.67 u/L
  ALBUMIN: 4.13 G/DL
  ALKALINE PHOSPHATASE: 403.33 u/L
  ASPARTATE AMINOTRANSFERASE: 95.33 u/L
  BLOOD UREA NITROGEN: 13.33 mg/dL
  CARBON DIOXIDE: 31.33 mmol/L
  CHLORIDE: 101.33 MEQ/L
  CHOLESTEROL: 68.67 mg/dL
  CREATINE PHOSPHOKINASE: 257.33 u/L
  CREATININE: 0.19 mg/dL
  GLUCOSE: 164.67 mg/dL
  LACTATE DEHYDROGENASE: 323.67 u/L
  LIPASE: 11.67 u/L
  PHOSPHORUS: 10.7 mg/dL
  POTASSIUM: 6.24 MEQ/L
  SODIUM: 143.9 MEQ/L
  TOTAL BILIRUBIN: 0.2 mg/dL
  TOTAL PROTEIN: 5.87 G/DL
  URIC ACID: 1.77 mg/dL
